A short description of series [1]: Selectivity index, ratio of CC50 for African green monkey Vero cells to IC50 for promastigote form of Leishmania amazonensis MHOM/BR/Josefa. In kind it is toxicity. Conditions: read-out: Ratio CC50/IC50.
Series [2] in a line: Selectivity index, ratio of CC50 for African green monkey Vero cells to IC50 for epimastigote form of Trypanosoma cruzi Y. In kind it is toxicity. To be noted: read-out: Ratio CC50/IC50.
Series [3] can be described thus: Selectivity index, ratio of CC50 for African green monkey Vero cells to EC50 for trypomastigote form of Trypanosoma cruzi. To be noted: read-out: Ratio CC50/EC50. In kind it is toxicity.
Series [4] concerns Trypanosoma cruzi. In words: Antiparasitic activity against trypomastigote form of Trypanosoma cruzi assessed as parasite lysis after 24 hrs by Pizzi-Brener method. Format: functional, organism-based.
The nature of series [5]: Cytotoxicity against African green monkey Vero cells assessed as growth inhibition. Format: cell-based. To be noted: chlorocebus sabaeus.
Series [6] relates to Trypanosoma cruzi. In words: Antiparasitic activity against epimastigote form of Trypanosoma cruzi Y assessed as parasite growth inhibition after 96 hrs by Neubauer hemocytometer. Format: functional, organism-based.
For series [7], the system named is Leishmania amazonensis. In words: Antiparasitic activity against promastigote form of Leishmania amazonensis MHOM/BR/Josefa assessed as parasite growth inhibition after 72 hrs by Neubauer hemocytometer. Format: functional, organism-based.

Take `COc1cc(/C=C2\CCC/C(=C\c3cc(OC)c(OC)c(OC)c3)C2=O)cc(OC)c1OC`: the selectivity ratio in series [1] came to 9.1; in series [2], 16.3; in series [3], 2.2. For the same molecule, the EC50 in series [4] worked out at 69.5 µM. For the same molecule, the CC50 in series [5] came out at 155 µM. Further, the figures for the IC50 in series [6] and in series [7] were 9.5 µM and 17 µM, respectively.

With `COc1ccc(/C=C2\CCC/C(=C\c3c(Cl)cccc3Cl)C2=O)cc1`, the values for the selectivity ratio in series [1], in series [2] and in series [3] were 44.6, 11.3 and 4.3, respectively. For the same molecule, in series [4], the EC50 amounted to 54.2 µM. Further, in series [5], the CC50 was 232 µM. The figures for the IC50 in series [6] and in series [7] were 20.5 µM and 5.2 µM, respectively.

Consider `COc1ccc(/C=C2\CCC/C(=C\c3cccc(OC)c3OC)C2=O)cc1`, for which the selectivity ratio in series [1] was found to be 45.1; in series [2], 77.2; in series [3], 14.6. For the same molecule, the EC50 in series [4] was 27.4 µM. The CC50 in series [5] came out at 401 µM. Moreover, the values for the IC50 in series [6] and in series [7] were 5.2 µM and 8.9 µM, respectively.

Take `COc1cccc(/C=C2\CCC/C(=C\c3ccccc3)C2=O)c1OC`: the values for the selectivity ratio in series [1], in series [2] and in series [3] were 2, 1.3 and 0.6, respectively. Besides, in series [4], the EC50 came to 60 µM. Further, the CC50 in series [5] worked out at 33.5 µM. The IC50 in series [6] was 25.8 µM; in series [7], 16.7 µM.

As to `O=C1/C(=C/c2c(Cl)cccc2Cl)CCC/C1=C\c1c(Cl)cccc1Cl`, the values for the selectivity ratio in series [1], in series [2] and in series [3] were 117, 6.8 and 6.1, respectively. For the same molecule, in series [4], the EC50 was 93.5 µM. Further, the CC50 in series [5] amounted to 574 µM. The IC50 was determined as 83.9 µM in series [6] and 4.9 µM in series [7].

Regarding `O=C1/C(=C/c2ccc(Cl)cc2)CCC/C1=C\c1ccc(Cl)cc1`, the selectivity ratio amounted to 8.9 in series [1], 2 in series [2] and 0.4 in series [3]. In addition, the EC50 in series [4] turned out to be 85.3 µM. The CC50 in series [5] came to 32.1 µM. In addition, the values for the IC50 in series [6] and in series [7] were 16.2 µM and 3.6 µM, respectively.

As to `O=C1/C(=C/c2ccc(Br)cc2)CCC/C1=C\c1ccc(Br)cc1`, the figures for the selectivity ratio in series [1], in series [2] and in series [3] were 13.8, 2 and 1.2, respectively. Moreover, the EC50 in series [4] came to 49 µM. For the same molecule, the CC50 in series [5] amounted to 58 µM. Also, the IC50 turned out to be 29.3 µM in series [6] and 4.2 µM in series [7].

As to `O=C1/C(=C/c2cccc(Br)c2)CCC/C1=C\c1cccc(Br)c1`, the selectivity ratio in series [1] stood at 15.6; in series [2], 1.1; in series [3], 0.6. Besides, the EC50 in series [4] was 63.2 µM. In series [5], the CC50 was 35.9 µM. Besides, the values for the IC50 in series [6] and in series [7] were 33.3 µM and 2.3 µM, respectively.

Regarding `COc1cccc(/C=C2\CCC/C(=C\c3cccc(OC)c3OC)C2=O)c1OC`, the selectivity ratio in series [1] came out at 6.1; in series [2] it was 1.1; in series [3], 0.9. Further, the EC50 in series [4] came to 27 µM. For the same molecule, the CC50 in series [5] came out at 24.9 µM. The IC50 in series [6] was found to be 23.6 µM; in series [7], 4.1 µM.

In the case of `O=C1/C(=C/c2ccc(F)cc2)CCC/C1=C\c1ccc(F)cc1`, the selectivity ratio was 8 in series [1], 1.4 in series [2] and 0.5 in series [3]. Besides, in series [4], the EC50 came out at 68.7 µM. Moreover, in series [5], the CC50 was 34.4 µM. For the same molecule, the IC50 was 24.7 µM in series [6] and 4.3 µM in series [7].

As to `O=C1/C(=C/c2ccccc2Cl)CCC/C1=C\c1ccccc1Cl`, the selectivity ratio in series [1] worked out at 6.7; in series [2], 1.1; in series [3], 0.8. For the same molecule, in series [4], the EC50 is 36.2 µM. Further, in series [5], the CC50 came to 30.6 µM. Further, the results for the IC50 in series [6] and in series [7] were 27.8 µM and 4.6 µM, respectively.

In the case of `O=C1/C(=C/c2ccccc2)CCC/C1=C\c1ccccc1` [2,6-DIBENZYLIDENECYCLOHEXANONE], the values for the selectivity ratio in series [1], in series [2] and in series [3] were 14.5, 2.2 and 0.5, respectively. Further, the EC50 in series [4] turned out to be 76.2 µM. In series [5], the CC50 was 40.6 µM. For the same molecule, the IC50 in series [6] was found to be 18.4 µM; in series [7], 2.8 µM.

As a reminder, the EC50 is the concentration at which the effect is half-maximal. What is called CC50 is the concentration at which the toxic effect on the cells reaches its halfway point. A word on the IC50: it is the concentration needed to halve the response being measured.

Values taken from ChEMBL document CHEMBL4152314, “Symmetrical and unsymmetrical substituted 2,5-diarylidene cyclohexanones as anti-parasitic compounds” (Eur J Med Chem, 2018).
